{"source": "patent US5428059A", "about": "“Benzopyran derivatives and an anti-allergic agent possessing the same as the active ingredient” (Dainippon Ink & Chemicals, Inc., priority 1991, dated 1995)", "data": [{"test_system": "Hartley-type male guinea pigs", "experiment": "Guinea Pig Homogeneous Skin Passive Anaphylaxis Assay (PCA reaction)", "format": "in vivo, guinea pig (Hartley-type)", "settings": "Cavia porcellus, 10 mg/kg oral, 48 h after sensitization, read-out: Allergic reaction inhibitory index (%)", "experimental": "In order to confirm the anti-allergic action of the compounds according to the present invention, as an anti-allergic action confirmation assay, the widely used Guinea Pig Homogeneous Skin Passive Anaphylaxis Assay (PCA Reaction Assay; Passive Cutaneous Anaphylaxis Reaction Assay) was carried out. The assay method used will be explained in the following.\nAssay method: Hartley-type male guinea pigs (body weight: 250~300 g) were sensitized by the following procedure; a mixture of 2 μg of egg albumin (OVA) and 5 μg of aluminium hydroxide gel was administered intraperitoneally 3 times every 2 weeks, and the anti-OVA blood serum was manufactured.\nThe anti-blood serum obtained was then diluted 120 times using physiological saline solution, and then to groups each containing 6 shaved guinea pigs, was injected at a quantity of 0.05 ml respectively, into two positions in the back portion, inside the skin of each animal.\nAfter the 48th hour of sensitization, 10 mg/kg of the test substance to be tested was orally administered, following which a mixture of 2 mg OVA and 5 mg of Evans Blue was administered by intraveneous injection into the hind leg, triggering the anaphylaxis reaction. As the positive control, Tranilast, a well known anti-allergic agent, was used, and in the same manner as the substances to be tested, 100 mg/kg of it was orally administered after the 48th hour of sensitization.\n30 minutes after triggering the reaction, the animals were bled to death under ether anesthesia, and their back portion skins were peeled off. The long and short diameters of pigment leakage spots on the interior surface of the skins were measured, and the product of these (mm^2) were entered into formula 1 as \"pigment leakage amount\", from which the allergic reaction inhibitory index wins calculated. [formula]\nI: Allergic reaction inhibitory index (%)\nA: Pigment leakage amount of solvent control group\nB: Pigment leakage amount of test substance group\nC: Pigment leakage amount of […]", "units": {"inhibition in vivo at 10 mg/kg": "%"}, "values": [{"smiles": "CCCCCCCCCCOc1cccc2oc(=O)c(OC(C)=O)c(OC(C)C)c12", "note": "[Compound 235, 3-(acetoxy)-4-(isopropoxy)-5-(decyloxy)-2H-1-benzopyran-2-one]", "inhibition in vivo at 10 mg/kg": 30}, {"smiles": "CC(=O)Oc1c(O)c(=O)oc2cccc(OC/C=C(\\C)CCC=C(C)C)c12", "note": "[Compound 246, 3-hydroxy-4-(acetoxy)-5-(geranyloxy)-2H-1-benzopyran-2-one]", "inhibition in vivo at 10 mg/kg": 30}, {"smiles": "CC(C)Oc1c(O)c2ccc(O)cc2oc1=O", "note": "[Compound 15, 3-(isopropoxy)-4,7-(dihydroxy)-2H-1-benzopyran-2-one]", "inhibition in vivo at 10 mg/kg": 41}, {"smiles": "CC(C)=CCC/C(C)=C/COc1c(OC(C)C)c(=O)oc2c(O)cccc12", "note": "[Compound 108, 3-(isopropoxy)-4-(geranyloxy)-8-hydroxy-2H-1-benzopyran-2-one]", "inhibition in vivo at 10 mg/kg": 32}, {"smiles": "CCCCCCCCCCOc1cccc2c(OC(C)C)c(OC(C)=O)c(=O)oc12", "note": "[Compound 149, 3-(acetoxy)-4-(isopropoxy)-8-(decyloxy)-2H-1-benzopyran-2-one]", "inhibition in vivo at 10 mg/kg": 33}, {"smiles": "CCCCCCCCCCOc1cccc2oc(=O)c(OC(C)C)c(OC/C=C(\\C)CCC=C(C)C)c12", "note": "[Compound 242, 3-(isopropoxy)-4-(geranyloxy)-5-(decyloxy)-2H-1-benzopyran-2-one]", "inhibition in vivo at 10 mg/kg": 30}, {"smiles": "CC(C)=CCC/C(C)=C/COc1c(OC/C=C(\\C)CCC=C(C)C)c2c(O)cccc2oc1=O", "note": "[Compound 193, 3,4-(digeranyloxy)-5-hydroxy-2H-1-benzopyran-2-one]", "inhibition in vivo at 10 mg/kg": 30}, {"smiles": "CCCCCCCCCCOc1c(O)c(=O)oc2cc(O)ccc12", "note": "[Compound 9, 4-(decyloxy)-3,7-(dihydroxy)-2H-1-benzopyran-2-one]", "inhibition in vivo at 10 mg/kg": 39}, {"smiles": "CC(C)Oc1ccc2c(O)c(O)c(=O)oc2c1", "note": "[Compound 45, 3,4-dihydroxy-7-(isopropoxy)-2H-1-benzopyran-2-one]", "inhibition in vivo at 10 mg/kg": 58}, {"smiles": "CCCCCCCCCCOc1c(O)c(=O)oc2cccc(O)c12", "note": "[Compound 183, 3,5-(dihydroxy)-4-(decyloxy)-2H-1-benzopyran-2-one]", "inhibition in vivo at 10 mg/kg": 30}, {"smiles": "COc1ccc2c(OC(=O)c3ccccc3)c(OC/C=C(\\C)CCC=C(C)C)c(=O)oc2c1", "note": "[Compound 39, 3-(geranyloxy)-4-(benzoyloxy)-7-(methoxy)-2H-1-benzopyran-2-one]", "inhibition in vivo at 10 mg/kg": 30}, {"smiles": "CCCCCCCCCCOc1cccc2oc(=O)c(OC)c(OC(=O)c3ccccc3)c12", "note": "[Compound 236, 3-(methoxy)-4-(benzoyloxy)-5-(decyloxy)-2H-1-benzopyran-2-one]", "inhibition in vivo at 10 mg/kg": 31}, {"smiles": "CCCCCCCCCCOc1c(OC(C)C)c2ccc(OC/C=C(\\C)CCC=C(C)C)cc2oc1=O", "note": "[Compound 80, 3-(decyloxy)-4-(isopropoxy)-7-(geranyloxy)-2H-1-benzopyran-2-one]", "inhibition in vivo at 10 mg/kg": 30}, {"smiles": "CC(=O)Oc1cccc2oc(=O)c(OC(=O)c3ccccc3)c(OC(C)=O)c12", "note": "[Compound 181, 3-(benzoyloxy)-4,5-(diacetoxy)-2H-1-benzopyran-2-one]", "inhibition in vivo at 10 mg/kg": 33}, {"smiles": "COc1c(OC/C=C(\\C)CCC=C(C)C)c(=O)oc2cccc(O)c12", "note": "[Compound 191, 3-(geranyloxy)-4-(methoxy)-5-hydroxy-2H-1-benzopyran-2-one]", "inhibition in vivo at 10 mg/kg": 30}, {"smiles": "CC(C)=CCC/C(C)=C/COc1cccc2c(OC(C)C)c(OC(=O)c3ccccc3)c(=O)oc12", "note": "[Compound 165, 3-(benzoyloxy)-4-(isopropoxy)-8-(geranyloxy)-2H-1-benzopyran-2-one]", "inhibition in vivo at 10 mg/kg": 30}, {"smiles": "CC(C)=CCC/C(C)=C/COc1c(O)c(=O)oc2c(OC/C=C(\\C)CCC=C(C)C)cccc12", "note": "[Compound 168, 3-hydroxy-4,8-(digeranyloxy)-2H-1-benzopyran-2-one]", "inhibition in vivo at 10 mg/kg": 34}, {"smiles": "COc1c(O)c2cc(O)ccc2oc1=O", "note": "[Compound 265, 3-(methoxy)-4,6-(dihydroxy)-2H-1-benzopyran-2-one]", "inhibition in vivo at 10 mg/kg": 37}, {"smiles": "CC(=O)Oc1c(OC/C=C(\\C)CCC=C(C)C)c(=O)oc2cccc(OC/C=C(\\C)CCC=C(C)C)c12", "note": "[Compound 255, 3,5-(digeranyloxy)-4-(acetoxy)-2H-1-benzopyran-2-one]", "inhibition in vivo at 10 mg/kg": 33}, {"smiles": "CCCCCCCCCCOc1ccc2c(OC)c(OC(C)C)c(=O)oc2c1", "note": "[Compound 66, 3-(isopropoxy)-4-(methoxy)-7-(decyloxy)-2H-1-benzopyran-2-one]", "inhibition in vivo at 10 mg/kg": 30}, {"smiles": "CC(C)=CCC/C(C)=C/COc1ccc2c(OC(C)C)c(OC(=O)c3ccccc3)c(=O)oc2c1", "note": "[Compound 81, 3-(benzoyloxy)-4-(isopropoxy)-7-(geranyloxy)-2H-1-benzopyran-2-one]", "inhibition in vivo at 10 mg/kg": 31}, {"smiles": "COc1cccc2oc(=O)c(OC(C)=O)c(OC/C=C(\\C)CCC=C(C)C)c12", "note": "[Compound 206, 3-(acetoxy)-4-(geranyloxy)-5-(methoxy)-2H-1-benzopyran-2-one]", "inhibition in vivo at 10 mg/kg": 32}, {"smiles": "CCCCCCCCCCOc1ccc2oc(=O)c(OC)c(O)c2c1", "note": "[Compound 275, 3-(methoxy)-4-(hydroxy)-6-(decyloxy)-2H-1-benzopyran-2-one]", "inhibition in vivo at 10 mg/kg": 36}, {"smiles": "CC(=O)Oc1c(OC/C=C(\\C)CCC=C(C)C)c(=O)oc2cccc(O)c12", "note": "[Compound 189, 3-(geranyloxy)-4-(acetoxy)-5-hydroxy-2H-1-benzopyran-2-one]", "inhibition in vivo at 10 mg/kg": 30}, {"smiles": "CCCCCCCCCCOc1cccc2oc(=O)c(O)c(OC/C=C(\\C)CCC=C(C)C)c12", "note": "[Compound 238, 3-hydroxy-4-(geranyloxy)-5-(decyloxy)-2H-1-benzopyran-2-one]", "inhibition in vivo at 10 mg/kg": 33}, {"smiles": "CCCCCCCCCCOc1ccc2c(OC)c(OC/C=C(\\C)CCC=C(C)C)c(=O)oc2c1", "note": "[Compound 71, 3-(geranyloxy)-4-(methoxy)-7-(decyloxy)-2H-1-benzopyran-2-one]", "inhibition in vivo at 10 mg/kg": 30}, {"smiles": "CC(C)=CCC/C(C)=C/COc1c(O)c(=O)oc2c(OC(C)C)cccc12", "note": "[Compound 139, 3-hydroxy-4-(geranyloxy)-8-(isopropoxy)-2H-1-benzopyran-2-one]", "inhibition in vivo at 10 mg/kg": 33}, {"smiles": "CC(C)Oc1cccc2oc(=O)c(O)c(O)c12", "note": "[Compound 211, 3,4-(dihydroxy)-5-(isopropoxy)-2H-1-benzopyran-2-one]", "inhibition in vivo at 10 mg/kg": 52}, {"smiles": "COc1cccc2oc(=O)c(O)c(O)c12", "note": "[Compound 195, 3,4-(dihydroxy)-5-(methoxy)-2H-1-benzopyran-2-one]", "inhibition in vivo at 10 mg/kg": 55}, {"smiles": "COc1ccc2c(OC/C=C(\\C)CCC=C(C)C)c(OC)c(=O)oc2c1", "note": "[Compound 42, 3,7-(dimethoxy)-4-(geranyloxy)-2H-1-benzopyran-2-one]", "inhibition in vivo at 10 mg/kg": 33}, {"smiles": "CCCCCCCCCCOc1cccc2oc(=O)c(OC/C=C(\\C)CCC=C(C)C)c(OC(C)=O)c12", "note": "[Compound 239, 3-(geranyloxy)-4-(acetoxy)-5-(decyloxy)-2H-1-benzopyran-2-one]", "inhibition in vivo at 10 mg/kg": 31}, {"smiles": "COc1c(OC(C)=O)c(=O)oc2cc(OC(C)C)ccc12", "note": "[Compound 51, 3-(acetoxy)-4-(methoxy)-7-(isopropoxy)-2H-1-benzopyran-2-one]", "inhibition in vivo at 10 mg/kg": 30}, {"smiles": "CC(C)=CCC/C(C)=C/COc1cccc2c(OC(C)C)c(O)c(=O)oc12", "note": "[Compound 163, 3-hydroxy-4-(isopropoxy)-8-(geranyloxy)-2H-1-benzopyran-2-one]", "inhibition in vivo at 10 mg/kg": 32}, {"smiles": "CCCCCCCCCCOc1ccc2c(O)c(OC(=O)c3ccccc3)c(=O)oc2c1", "note": "[Compound 58, 3-(benzoyloxy)-4-hydroxy-7-(decyloxy)-2H-1-benzopyran-2-one]", "inhibition in vivo at 10 mg/kg": 38}]}]}
